The source made the active and inactive calls. No rule for the calls is given here.
Test system: NOD2-RIPK2 signaling cell assay, absorbance 620 nm
Experiment: NOD2-RIPK2 signaling inhibitors, IC50, late-stage follow-up, cell-based, absorbance 620 nm (AID 652166)

## O=S(=O)(c1ccccc1)N1CCCCCC1
  IC50: > 10 µM (inactive)

## Cc1ccc(C(C[N+](=O)[O-])n2nc(C)cc2C)cc1 (stereo unspecified)
  IC50: > 10 µM (inactive)

## O=[N+]([O-])c1cccc(S(=O)(=O)N2CCCCCC2)c1
  IC50: > 10 µM (inactive)

## Cc1cc(S(=O)(=O)N2CCCCCC2)ccc1F
  IC50: > 10 µM (inactive)

## O=S(=O)(c1ccc(F)cc1)N1CCCCCC1
  IC50: > 10 µM (inactive)

## Cc1ccc(S(=O)(=O)N2CCCCCC2)cc1[N+](=O)[O-]
  IC50: > 10 µM (inactive)

## COc1ccc(C(C[N+](=O)[O-])n2nc(C)cc2C)cc1 (stereo unspecified)
  IC50: > 10 µM (inactive)

## Cc1ncc([N+](=O)[O-])n1Cc1ccc(Cl)c(Cl)c1
  IC50: > 10 µM (inactive)

## Cc1nc([N+](=O)[O-])c(Br)n1Cc1ccccc1
  IC50: > 10 µM (inactive)

## Cc1nc([N+](=O)[O-])c(Br)n1Cc1ccc(Cl)c(Cl)c1
  IC50: > 10 µM (inactive)

## O=[N+]([O-])c1cc(S(=O)(=O)N2CCCCCC2)ccc1F
  IC50: > 10 µM (inactive)
